Literature values as cited in patent US20090155392A1, “Methods and Systems for Sublingual Guarana Administration” (priority 2007, published 2009).

Columns and labels:
[1] = in vivo
[2] = versus other lithium salts (lithium carbonate, lithium citrate)

## CS(C)(=O)=O [MSM, Methylsulfonylmethane]
[1]
  homocysteine levels in blood: statistically significant lower levels
  joint pain and stiffness: significantly beneficial effect on joint pain and stiffness

## COc1cc(CNC(=O)CCCC/C=C/C(C)C)ccc1O [capsaicin, Capsaicin]
30 minutes and 60 minutes after taking the extract
  mean metabolic rate: significant increase
Two week period
  subjects with reduced body fat: 70%

## O=C([O-])c1cc(=O)[nH]c(=O)[nH]1.[Li+] [lithium orotate, Lithium orotate]
[2]
  bio-activity relative to other lithium salts: 20 times
